# Laboratory results from PubChem BioAssay (NCI).
#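 Method: 48-hour compound exposure of cells in 96-well plates, five concentrations, linear interpolation of endpoints. The concentration for full growth arrest is given as TGI.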
# What was measured:
# Experiment in all cases: DTP human tumour cell line panel, 48 h
# 786-0 renal = system: 786-0 renal
# A498 renal = system: A498 renal
# A549 NSCLC = system: A549 NSCLC
# ACHN renal = system: ACHN renal
# BT-549 breast = system: BT-549 breast
# CAKI-1 renal = system: CAKI-1 renal
# CCRF-CEM leukemia = system: CCRF-CEM leukemia
# COLO 205 colon = system: COLO 205 colon
# DU-145 prostate = system: DU-145 prostate
# EKVX NSCLC = system: EKVX NSCLC
# HCC-2998 colon = system: HCC-2998 colon
# HCT-116 colon = system: HCT-116 colon
# HL-60(TB) leukemia = system: HL-60(TB) leukemia
# HOP-62 NSCLC = system: HOP-62 NSCLC
# HOP-92 NSCLC = system: HOP-92 NSCLC
# HS 578T breast = system: HS 578T breast
# IGROV1 ovarian = system: IGROV1 ovarian
# M14 melanoma = system: M14 melanoma
# MALME-3M melanoma = system: MALME-3M melanoma
# MCF7 breast = system: MCF7 breast
# MDA-MB-435 = system: MDA-MB-435
# MDA-N = system: MDA-N
# MOLT-4 leukemia = system: MOLT-4 leukemia
# NCI-H23 lung = system: NCI-H23 lung
# NCI-H460 lung = system: NCI-H460 lung
# NCI-H522 lung = system: NCI-H522 lung
# OVCAR-4 ovarian = system: OVCAR-4 ovarian
# OVCAR-5 ovarian = system: OVCAR-5 ovarian
# OVCAR-8 ovarian = system: OVCAR-8 ovarian
# PC-3 prostate = system: PC-3 prostate
# RPMI-8226 leukemia = system: RPMI-8226 leukemia
# RXF 393 renal = system: RXF 393 renal
# SF-268 CNS = system: SF-268 CNS
# SF-539 CNS = system: SF-539 CNS
# SK-MEL-28 melanoma = system: SK-MEL-28 melanoma
# SK-MEL-5 melanoma = system: SK-MEL-5 melanoma
# SK-OV-3 ovarian = system: SK-OV-3 ovarian
# SN12C renal = system: SN12C renal
# SNB-19 CNS = system: SNB-19 CNS
# SNB-75 CNS = system: SNB-75 CNS
# SR leukemia = system: SR leukemia
# SW-620 colon = system: SW-620 colon
# TK-10 renal = system: TK-10 renal
# U251 CNS = system: U251 CNS
# UACC-257 melanoma = system: UACC-257 melanoma
# UACC-62 melanoma = system: UACC-62 melanoma
# UO-31 renal = system: UO-31 renal
# HCT-15 colon = system: HCT-15 colon
# HT29 colon = system: HT29 colon
# K-562 leukemia = system: K-562 leukemia
# KM12 colon = system: KM12 colon
# LOX IMVI melanoma = system: LOX IMVI melanoma
# NCI-H226 lung = system: NCI-H226 lung
# NCI/ADR-RES ovarian = system: NCI/ADR-RES ovarian
# OVCAR-3 ovarian = system: OVCAR-3 ovarian
# SF-295 CNS = system: SF-295 CNS
# SK-MEL-2 melanoma = system: SK-MEL-2 melanoma
# T-47D breast = system: T-47D breast
# MDA-MB-231 breast = system: MDA-MB-231 breast
smiles,measurement,setting,value
O=C1CSc2ccnc(=O)n21,TGI,786-0 renal,> 100 µM
same,TGI,A498 renal,> 100 µM
same,TGI,A549 NSCLC,> 100 µM
same,TGI,ACHN renal,> 100 µM
same,TGI,BT-549 breast,> 100 µM
same,TGI,CAKI-1 renal,> 100 µM
same,TGI,CCRF-CEM leukemia,> 100 µM
same,TGI,COLO 205 colon,> 100 µM
same,TGI,DU-145 prostate,> 100 µM
same,TGI,EKVX NSCLC,> 100 µM
same,TGI,HCC-2998 colon,> 100 µM
same,TGI,HCT-116 colon,> 100 µM
same,TGI,HL-60(TB) leukemia,> 100 µM
same,TGI,HOP-62 NSCLC,> 100 µM
same,TGI,HOP-92 NSCLC,> 100 µM
same,TGI,HS 578T breast,> 100 µM
same,TGI,IGROV1 ovarian,> 100 µM
same,TGI,M14 melanoma,> 100 µM
same,TGI,MALME-3M melanoma,> 100 µM
same,TGI,MCF7 breast,> 100 µM
same,TGI,MDA-MB-435,> 100 µM
same,TGI,MDA-N,> 100 µM
same,TGI,MOLT-4 leukemia,> 100 µM
same,TGI,NCI-H23 lung,> 100 µM
same,TGI,NCI-H460 lung,> 100 µM
same,TGI,NCI-H522 lung,> 100 µM
same,TGI,OVCAR-4 ovarian,> 100 µM
same,TGI,OVCAR-5 ovarian,> 100 µM
same,TGI,OVCAR-8 ovarian,> 100 µM
same,TGI,PC-3 prostate,> 100 µM
same,TGI,RPMI-8226 leukemia,> 100 µM
same,TGI,RXF 393 renal,> 100 µM
same,TGI,SF-268 CNS,> 100 µM
same,TGI,SF-539 CNS,> 100 µM
same,TGI,SK-MEL-28 melanoma,> 100 µM
same,TGI,SK-MEL-5 melanoma,> 100 µM
same,TGI,SK-OV-3 ovarian,> 100 µM
same,TGI,SN12C renal,> 100 µM
same,TGI,SNB-19 CNS,> 100 µM
same,TGI,SNB-75 CNS,> 100 µM
same,TGI,SR leukemia,> 100 µM
same,TGI,SW-620 colon,> 100 µM
same,TGI,TK-10 renal,> 100 µM
same,TGI,U251 CNS,> 100 µM
same,TGI,UACC-257 melanoma,> 100 µM
same,TGI,UACC-62 melanoma,> 100 µM
same,TGI,UO-31 renal,> 100 µM
NC(N)=N/N=C/c1c(Cl)nc2n1CCS2,TGI,786-0 renal,> 100 µM
same,TGI,A498 renal,> 100 µM
same,TGI,A549 NSCLC,> 100 µM
same,TGI,ACHN renal,> 100 µM
same,TGI,BT-549 breast,> 100 µM
same,TGI,CAKI-1 renal,> 100 µM
same,TGI,CCRF-CEM leukemia,> 100 µM
same,TGI,COLO 205 colon,> 100 µM
same,TGI,DU-145 prostate,> 100 µM
same,TGI,EKVX NSCLC,> 100 µM
same,TGI,HCC-2998 colon,> 100 µM
same,TGI,HCT-116 colon,73.7 µM
same,TGI,HCT-15 colon,> 100 µM
same,TGI,HL-60(TB) leukemia,> 100 µM
same,TGI,HOP-62 NSCLC,> 100 µM
same,TGI,HOP-92 NSCLC,> 100 µM
same,TGI,HS 578T breast,> 100 µM
same,TGI,HT29 colon,> 100 µM
same,TGI,IGROV1 ovarian,> 100 µM
same,TGI,K-562 leukemia,> 100 µM
same,TGI,KM12 colon,> 100 µM
same,TGI,LOX IMVI melanoma,> 100 µM
same,TGI,M14 melanoma,> 100 µM
same,TGI,MALME-3M melanoma,> 100 µM
same,TGI,MCF7 breast,> 100 µM
same,TGI,MDA-MB-435,> 100 µM
same,TGI,MDA-N,> 100 µM
same,TGI,MOLT-4 leukemia,> 100 µM
same,TGI,NCI-H226 lung,> 100 µM
same,TGI,NCI-H23 lung,> 100 µM
same,TGI,NCI-H460 lung,> 100 µM
same,TGI,NCI-H522 lung,> 100 µM
same,TGI,NCI/ADR-RES ovarian,> 100 µM
same,TGI,OVCAR-3 ovarian,> 100 µM
same,TGI,OVCAR-4 ovarian,> 100 µM
same,TGI,OVCAR-5 ovarian,> 100 µM
same,TGI,OVCAR-8 ovarian,> 100 µM
same,TGI,PC-3 prostate,> 100 µM
same,TGI,RPMI-8226 leukemia,> 100 µM
same,TGI,RXF 393 renal,> 100 µM
same,TGI,SF-268 CNS,> 100 µM
same,TGI,SF-295 CNS,> 100 µM
same,TGI,SF-539 CNS,> 100 µM
same,TGI,SK-MEL-2 melanoma,> 100 µM
same,TGI,SK-MEL-28 melanoma,> 100 µM
same,TGI,SK-OV-3 ovarian,> 100 µM
same,TGI,SN12C renal,> 100 µM
same,TGI,SNB-19 CNS,> 100 µM
same,TGI,SNB-75 CNS,> 100 µM
same,TGI,SR leukemia,> 100 µM
same,TGI,SW-620 colon,> 100 µM
same,TGI,T-47D breast,> 100 µM
same,TGI,TK-10 renal,> 100 µM
same,TGI,U251 CNS,> 100 µM
same,TGI,UACC-257 melanoma,> 100 µM
same,TGI,UACC-62 melanoma,> 100 µM
same,TGI,UO-31 renal,> 100 µM
O=C1OC(=O)c2c1cc1cc3c(cc1c2-c1ccc2c(c1)OCO2)OCO3,TGI,786-0 renal,48.1 µM
same,TGI,A498 renal,> 100 µM
same,TGI,A549 NSCLC,> 100 µM
same,TGI,ACHN renal,> 100 µM
same,TGI,BT-549 breast,> 100 µM
same,TGI,CAKI-1 renal,> 100 µM
same,TGI,CCRF-CEM leukemia,> 100 µM
same,TGI,COLO 205 colon,> 100 µM
same,TGI,DU-145 prostate,> 100 µM
same,TGI,HCC-2998 colon,> 100 µM
same,TGI,HCT-116 colon,> 100 µM
same,TGI,HCT-15 colon,> 100 µM
same,TGI,HL-60(TB) leukemia,> 100 µM
same,TGI,HOP-92 NSCLC,> 100 µM
same,TGI,HT29 colon,> 100 µM
same,TGI,IGROV1 ovarian,> 100 µM
same,TGI,K-562 leukemia,> 100 µM
same,TGI,KM12 colon,> 100 µM
same,TGI,M14 melanoma,> 100 µM
same,TGI,MALME-3M melanoma,> 100 µM
same,TGI,MCF7 breast,> 100 µM
same,TGI,MDA-MB-231 breast,> 100 µM
same,TGI,MDA-MB-435,> 100 µM
same,TGI,MDA-N,> 100 µM
same,TGI,MOLT-4 leukemia,> 100 µM
same,TGI,NCI-H226 lung,> 100 µM
same,TGI,NCI-H23 lung,> 100 µM
same,TGI,NCI-H460 lung,> 100 µM
same,TGI,NCI-H522 lung,> 100 µM
same,TGI,NCI/ADR-RES ovarian,> 100 µM
same,TGI,OVCAR-3 ovarian,> 100 µM
same,TGI,OVCAR-4 ovarian,> 100 µM
same,TGI,OVCAR-5 ovarian,> 100 µM
same,TGI,OVCAR-8 ovarian,> 100 µM
same,TGI,PC-3 prostate,> 100 µM
same,TGI,RPMI-8226 leukemia,> 100 µM
same,TGI,RXF 393 renal,> 100 µM
same,TGI,SF-268 CNS,> 100 µM
same,TGI,SF-295 CNS,> 100 µM
same,TGI,SF-539 CNS,> 100 µM
same,TGI,SK-MEL-2 melanoma,> 100 µM
same,TGI,SK-MEL-28 melanoma,> 100 µM
same,TGI,SK-MEL-5 melanoma,> 100 µM
same,TGI,SN12C renal,> 100 µM
same,TGI,SNB-19 CNS,> 100 µM
same,TGI,SNB-75 CNS,> 100 µM
same,TGI,SW-620 colon,> 100 µM
same,TGI,T-47D breast,> 100 µM
same,TGI,TK-10 renal,> 100 µM
same,TGI,U251 CNS,> 100 µM
same,TGI,UACC-257 melanoma,> 100 µM
same,TGI,UACC-62 melanoma,> 100 µM
same,TGI,UO-31 renal,> 100 µM
NC(=S)N/N=C1\CCc2ccccc2C1,TGI,786-0 renal,> 100 µM
same,TGI,A498 renal,> 100 µM
same,TGI,A549 NSCLC,> 100 µM
same,TGI,ACHN renal,> 100 µM
same,TGI,BT-549 breast,> 100 µM
same,TGI,CCRF-CEM leukemia,> 100 µM
same,TGI,COLO 205 colon,> 100 µM
same,TGI,DU-145 prostate,> 100 µM
same,TGI,EKVX NSCLC,> 100 µM
same,TGI,HCC-2998 colon,> 100 µM
same,TGI,HCT-116 colon,> 100 µM
same,TGI,HCT-15 colon,> 100 µM
same,TGI,HL-60(TB) leukemia,> 100 µM
same,TGI,HOP-62 NSCLC,> 100 µM
same,TGI,HOP-92 NSCLC,> 100 µM
same,TGI,HT29 colon,> 100 µM
same,TGI,IGROV1 ovarian,> 100 µM
same,TGI,K-562 leukemia,> 100 µM
same,TGI,KM12 colon,> 100 µM
same,TGI,LOX IMVI melanoma,> 100 µM
same,TGI,M14 melanoma,> 100 µM
same,TGI,MALME-3M melanoma,> 100 µM
same,TGI,MCF7 breast,> 100 µM
same,TGI,MDA-MB-231 breast,> 100 µM
same,TGI,MDA-MB-435,> 100 µM
same,TGI,MDA-N,> 100 µM
same,TGI,MOLT-4 leukemia,> 100 µM
same,TGI,NCI-H226 lung,> 100 µM
same,TGI,NCI-H23 lung,> 100 µM
same,TGI,NCI-H460 lung,> 100 µM
same,TGI,NCI-H522 lung,> 100 µM
same,TGI,NCI/ADR-RES ovarian,> 100 µM
same,TGI,OVCAR-3 ovarian,> 100 µM
same,TGI,OVCAR-4 ovarian,> 100 µM
same,TGI,OVCAR-5 ovarian,> 100 µM
same,TGI,OVCAR-8 ovarian,> 100 µM
same,TGI,PC-3 prostate,> 100 µM
same,TGI,RPMI-8226 leukemia,> 100 µM
same,TGI,RXF 393 renal,> 100 µM
same,TGI,SF-268 CNS,> 100 µM
same,TGI,SF-295 CNS,> 100 µM
same,TGI,SF-539 CNS,> 100 µM
same,TGI,SK-MEL-28 melanoma,> 100 µM
same,TGI,SK-OV-3 ovarian,> 100 µM
same,TGI,SN12C renal,> 100 µM
same,TGI,SNB-19 CNS,> 100 µM
same,TGI,SR leukemia,> 100 µM
same,TGI,SW-620 colon,> 100 µM
same,TGI,T-47D breast,> 100 µM
same,TGI,TK-10 renal,> 100 µM
same,TGI,U251 CNS,> 100 µM
same,TGI,UACC-257 melanoma,> 100 µM
same,TGI,UACC-62 melanoma,> 100 µM
same,TGI,UO-31 renal,> 100 µM
